Laboratory results published in US12673945B2, “3-((8-((1H-pyrazol-4-yl)amino)imidazo[1,2-a]pyridin-3-yl)ethinyl)-n-phenylbenzamide derivative, method for preparing same, and pharmaceutical composition containing same as active ingredient for prevention or treatment of cancer” (DAEGU-GYEONGBUK MEDICAL INNOVATION FOUNDATION, priority 2020, dated 2026).

Legend:
[1] = oral pharmacokinetic test; assay type: in vivo, ICR mice; conditions: ICR, mouse, plasma, 10 mg/kg, 10 mg/Kg PO, vehicle A (NMP:PEG400=5:95)
Experimental: (§1) To evaluate the pharmacokinetic properties in vivo, oral pharmacokinetic test was performed with the compounds of Comparative Examples 1 and 4 and Examples 1 and 4 using mice and rats, and the PK parameters are shown in Table 10.
(§2) ICR mice (6-7 weeks old) and SD rats (6-7 weeks old) were used for the test. The fasted group was fasted about 16 hours before oral administration, and the fed group was fasted about 4 hours before oral administration. The test drug for oral administration was used by dissolving the drug in a vehicle at a concentration of 1 mg/mL for use, and blood samples were collected (time point: 0.25, 0.5, 1, 2, 4, 8, 12, 24, 32, n=3) from the heart (mouse, 500 μL/time point) or jugular vein (rat, 120 μL/time point). Blood was centrifuged at 12,000 G at 4° C. for 2 minutes to separate plasma, and stored at −80° C. until analysis. • Vehicle A (NMP:PEG400=5:95) • Vehicle B (0.5% methyl cellulose) 6-2. Sampling and Pretreatment
(§3) To 20 μl of plasma, 180 μl of acetonitrile (including internal standard) was added. The mixture was vortexed and centrifuged for 5 minutes at 15,000 rpm at 4° C. The supernatant obtained after centrifugation was analyzed by LC-MS/MS.
(§4) PK parameters were calculated with a non-compartmental analysis model using Phoenix WinNonlin 6.4 version (Pharsight, USA) program.

[2] = oral pharmacokinetic test; assay type: in vivo, SD rats; conditions: SD, plasma; rat, 10 mg/Kg PO, vehicle A (NMP:PEG400=5:95)
Experimental: as §1, §2, §3, §4

[3] = test system: T315I-Bcr-Abl (Ba/F3); experiment: Ba/F3 cell proliferation inhibition; assay type: cell-based; conditions: BaF3; 72 hours, Cell Counting Kit-8
Procedure, shortened: (§5)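 Parental and T315I-Bcr-Abl Ba/F3 cells, 1×10^4 per well, exposed 72 h at 37 °C to nine 3-fold dilutions, final 0 to 10 μM. Viability by CCK-8 after 2 h, absorbance 450 nm; GI50 fitted from percent of vehicle-treated cells.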

[4] = test system: Parental (Ba/F3); experiment: Ba/F3 cell proliferation inhibition; assay type: cell-based; conditions: BaF3; 72 hours, Cell Counting Kit-8
Procedure, shortened: as §5

[5] = test system: TCCS cells; experiment: human CML cell proliferation inhibition; assay type: cell-based; conditions: 72 hours, Cell Counting Kit-8
Procedure, shortened: (§6)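 Seed 1×10^4 cells/well; add compound, 9 concentrations by 5-fold dilution, final 0–10 μM, or DMSO; incubate 72 h, 37 °C, CO2; add CCK-8 for 2 h; read A450; normalise to vehicle; fit GI50.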

[6] = test system: T315I-KOPM28 cells; experiment: human CML cell proliferation inhibition; assay type: cell-based; conditions: 72 hours, Cell Counting Kit-8
Procedure, shortened: as §6

[7] = test system: KOPM28 cells; experiment: human CML cell proliferation inhibition; assay type: cell-based; conditions: 72 hours, Cell Counting Kit-8
Procedure, shortened: as §6

[8] = test system: T315I-TCCS cells; experiment: human CML cell proliferation inhibition; assay type: cell-based; conditions: 72 hours, Cell Counting Kit-8
Procedure, shortened: as §6

[9] = test system: Luc_Ba/F3 T315I-Bcr-Abl cell line; experiment: in vivo pharmacological activity, blood cancer mouse model; parameters: species or system nude mice; conditions: 25 mg/kg oral once a day for 10 days; vehicle group: day 21
Experimental: (§7) After the mice were adapted to an animal facility for 1 week, the Luc_Ba/F3 T315I-Bcr-Abl cell line emitting luciferase was transplanted into the caudal vein at the density of 5×10^6/animal. Group separation was performed 3 days after the cell line transplantation. On the day of the group separation, 10 mice were randomly assigned to each group of 5 groups so that the luminescence values were equal after luminescence measurement using IVIS spectrum-CT optical imaging equipment.
In addition, the body weight and survival rate of each experimental group were monitored.
Statistical analysis was performed using GraphPad Prism 8, and the statistical significance of the survival rate was confirmed using unpaired t test and log-rank (Mantel-Cox) test.

[10] = body weight in blood cancer mouse model; assay type: in vivo, nude mice; conditions: 25 mg/kg oral once a day for 10 days
Experimental: as §7, with “A total of 50 male 5-week-old nude mice (14-17 g) were obtained from Orient Bio Inc. (322, Galmachi-ro, Jungwon-gu, Seongnam-si, Gyeonggi-do, Korea). After” for “After”
5 groups: control (vehicle, 0.5% methylcellulose solution), ponatinib (25 mg/kg), Example 1 (25 mg/kg), Example 1 (50 mg/kg), Example 1 (100 mg/kg).
After the group separation, the compound of Example 1, ponatinib, and a vehicle were orally administered at intervals of once a day for 10 days in order to evaluate the therapeutic efficacy of the drug. The drug effect was confirmed through optical imaging, and the confirmation was carried out before the drug administration (day 0) and on days 4, 11, 18 and 21 after the administration. In addition, the body weight and survival rate of each experimental group were monitored.

| Structure (SMILES) | AUC(0-t) [1] [ng·h/mL] | Cmax [1] [ng/mL] | half-life [1] [h] | AUC(0-t) [2] [ng·h/mL] | Cmax [2] [ng/mL] | GI50 [3] [nM] | GI50 [4] [nM] | GI50 [5] [nM] | GI50 [6] [nM] | GI50 [7] [nM] | GI50 [8] [nM] | day after the administration on which all subjects died (FIG. 3) [9] [days] | body weight change during the experimental period (FIG. 4) [10] |
| --- | --- | --- | --- | --- | --- | --- | --- | --- | --- | --- | --- | --- | --- |
| Cc1cn(-c2cc(NC(=O)c3ccc(C)c(C#Cc4cnc5c(Nc6cnn(C)c6)cccn45)c3)cc(C(F)(F)F)c2)cn1 [Comparative Example 1, 4-methyl-N-(3-(4-methyl-1H-imidazol-1-yl)-5-(trifluoromethyl)phenyl)-3-((8-((1-methyl-1H-pyrazol-4-yl)amino)imidazo[1,2-a]pyridin-3-yl)ethynyl)benzamide, reference compound] | 7730 | 810 | 3.5 | – | – | – | – | – | – | – | – | – | – |
| Cc1cn(-c2cc(NC(=O)c3ccc(C)c(C#Cc4cnc5c(Nc6cnn(C)c6)cccn45)c3)cc(C(C)(C)C#N)c2)cn1 [Comparative Example 4, N-(3-(2-cyanopropan-2-yl)-5-(4-methyl-1H-imidazol-1-yl)phenyl)-4-methyl-3-((8-((1-methyl-1H-pyrazol-4-yl)amino)imidazo[1,2-a]pyridin-3-yl)ethynyl)benzamide, reference compound] | 12600 | 3840 | 3.3 | 2960 | 169 | – | – | – | – | – | – | – | – |
| Cc1ccc(C(=O)Nc2ccc(CN3CCN(C)CC3)c(C(F)(F)F)c2)cc1C#Cc1cnc2cccnn12 [ponatinib, reference compound] | – | – | – | – | – | – | – | – | – | – | – | 35 | no significant body weight change |

More lines, main results first:

| AUC(0-t) [1] [ng·h/mL] | Cmax [1] [ng/mL] | half-life [1] [h] | AUC(0-t) [2] [ng·h/mL] | Cmax [2] [ng/mL] | GI50 [3] [nM] | Structure (SMILES) | GI50 [4] [nM] | GI50 [5] [nM] | GI50 [6] [nM] | GI50 [7] [nM] | GI50 [8] [nM] | day after the administration on which all subjects died (FIG. 3) [9] [days] | body weight change during the experimental period (FIG. 4) [10] |
| --- | --- | --- | --- | --- | --- | --- | --- | --- | --- | --- | --- | --- | --- |
| – | – | – | – | – | 50 to 500 | Cc1cc(F)c(C(=O)Nc2ccc(CN3CCN(C)C(=O)C3)c(C(F)(F)F)c2)cc1C#Cc1cnc2c(Nc3cn[nH]c3)cccn12 [Example 112, 5-((8-((1H-pyrazol-4-yl)amino)imidazo[1,2-a]pyridin-3-yl)ethynyl)-2-fluoro-4-methyl-N-(4-((4-methyl-3-oxopiperazin-1-yl)methyl)-3-(trifluoromethyl)phenyl)benzamide] | 500 to 5000 | < 10 | 100 | < 10 | 100 | – | – |
| – | – | – | – | – | 500 to 5000 | Cc1cc(F)c(C(=O)Nc2ccc(CN3CCN(S(C)(=O)=O)CC3)c(C(F)(F)F)c2)cc1C#Cc1cnc2c(Nc3cn[nH]c3)cccn12 [Example 113, 5-((8-((1H-pyrazol-4-yl)amino)imidazo[1,2-a]pyridin-3-yl)ethynyl)-2-fluoro-4-methyl-N-(4-((4-(methylsulfonyl)piperazin-1-yl)methyl)-3-(trifluoromethyl)phenyl)benzamide] | > 5000 | < 10 | > 100 | < 10 | > 100 | – | – |
| – | – | – | – | – | 50 to 500 | Cc1cc(F)c(C(=O)Nc2ccc(Cn3cncn3)c(C(F)(F)F)c2)cc1C#Cc1cnc2c(Nc3cn[nH]c3)cccn12 [Example 114, N-(4-((1H-1,2,4-triazol-1-yl)methyl)-3-(trifluoromethyl)phenyl)-5-((8-((1H-pyrazol-4-yl)amino)imidazo[1,2-a]pyridin-3-yl)ethynyl)-2-fluoro-4-methylbenzamide] | > 5000 | < 10 | > 100 | < 10 | > 100 | – | – |
